# Experimental data taken from ChEMBL document CHEMBL5108052, “Histone Deacetylase and Enhancer of Zeste Homologue 2 Dual Inhibitors Presenting a Synergistic Effect for the Treatment of Hematological Malignancies” (J Med Chem, 2022).
# Tests used:
# Histone deacetylase 7 = target: T1, Histone deacetylase 7 (Homo sapiens, UniProt Q8WUI4); experiment: Inhibition of N-terminal GST-fusion tagged recombinant human HDAC7 (518 to 991 residues) expressed in insect cells using trifluoroacetyl lysine as substrate incubated for 2 hrs by Multimode microplate reader analysis
# T1 sequence (Q8WUI4 whole entry): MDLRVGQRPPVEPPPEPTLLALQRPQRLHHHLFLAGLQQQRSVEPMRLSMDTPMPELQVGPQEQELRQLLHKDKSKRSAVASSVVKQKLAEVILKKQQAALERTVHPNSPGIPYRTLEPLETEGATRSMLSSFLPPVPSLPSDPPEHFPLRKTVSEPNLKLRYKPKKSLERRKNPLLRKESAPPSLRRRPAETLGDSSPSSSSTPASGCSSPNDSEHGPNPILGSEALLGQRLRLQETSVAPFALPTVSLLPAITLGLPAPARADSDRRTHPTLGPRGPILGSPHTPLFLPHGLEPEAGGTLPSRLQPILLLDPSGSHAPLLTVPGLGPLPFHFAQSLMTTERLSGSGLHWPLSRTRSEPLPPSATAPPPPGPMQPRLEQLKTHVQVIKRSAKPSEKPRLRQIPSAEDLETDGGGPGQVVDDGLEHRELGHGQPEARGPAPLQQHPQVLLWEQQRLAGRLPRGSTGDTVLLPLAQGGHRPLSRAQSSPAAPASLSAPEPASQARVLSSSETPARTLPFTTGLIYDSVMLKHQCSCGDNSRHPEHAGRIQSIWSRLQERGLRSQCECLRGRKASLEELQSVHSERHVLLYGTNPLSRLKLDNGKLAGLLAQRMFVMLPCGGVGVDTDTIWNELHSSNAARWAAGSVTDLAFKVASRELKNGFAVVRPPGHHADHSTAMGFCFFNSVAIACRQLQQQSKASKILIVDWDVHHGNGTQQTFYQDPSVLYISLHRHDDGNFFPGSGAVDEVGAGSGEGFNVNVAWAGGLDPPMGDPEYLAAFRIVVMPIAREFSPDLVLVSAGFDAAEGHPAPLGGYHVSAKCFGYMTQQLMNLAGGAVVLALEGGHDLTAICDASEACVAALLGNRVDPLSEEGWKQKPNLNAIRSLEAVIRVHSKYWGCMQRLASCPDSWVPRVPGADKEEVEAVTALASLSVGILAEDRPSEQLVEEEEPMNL
# MV4-11 [1] = experiment: Induction of apoptosis in human MV4-11 cells assessed as early apoptotic cells at 0.4 uM measured after 48 hrs by Annexin V/7-AAD-dual staining based flow cytometric analysis (reference value: 2.2 %); type: functional
# Histone deacetylase 4 = Histone deacetylase 4 (Homo sapiens, UniProt P56524); experiment: Inhibition of N-terminal GST-tagged/C-terminal His-tagged human HDAC4 (627 to 1084 residues) expressed in baculovirus expression system using trifluoroacetyl lysine as substrate incubated for 2 hrs by Multimode microplate reader analysis
# Chain of Histone deacetylase 4 (P56524 whole entry, the tested form may be a part): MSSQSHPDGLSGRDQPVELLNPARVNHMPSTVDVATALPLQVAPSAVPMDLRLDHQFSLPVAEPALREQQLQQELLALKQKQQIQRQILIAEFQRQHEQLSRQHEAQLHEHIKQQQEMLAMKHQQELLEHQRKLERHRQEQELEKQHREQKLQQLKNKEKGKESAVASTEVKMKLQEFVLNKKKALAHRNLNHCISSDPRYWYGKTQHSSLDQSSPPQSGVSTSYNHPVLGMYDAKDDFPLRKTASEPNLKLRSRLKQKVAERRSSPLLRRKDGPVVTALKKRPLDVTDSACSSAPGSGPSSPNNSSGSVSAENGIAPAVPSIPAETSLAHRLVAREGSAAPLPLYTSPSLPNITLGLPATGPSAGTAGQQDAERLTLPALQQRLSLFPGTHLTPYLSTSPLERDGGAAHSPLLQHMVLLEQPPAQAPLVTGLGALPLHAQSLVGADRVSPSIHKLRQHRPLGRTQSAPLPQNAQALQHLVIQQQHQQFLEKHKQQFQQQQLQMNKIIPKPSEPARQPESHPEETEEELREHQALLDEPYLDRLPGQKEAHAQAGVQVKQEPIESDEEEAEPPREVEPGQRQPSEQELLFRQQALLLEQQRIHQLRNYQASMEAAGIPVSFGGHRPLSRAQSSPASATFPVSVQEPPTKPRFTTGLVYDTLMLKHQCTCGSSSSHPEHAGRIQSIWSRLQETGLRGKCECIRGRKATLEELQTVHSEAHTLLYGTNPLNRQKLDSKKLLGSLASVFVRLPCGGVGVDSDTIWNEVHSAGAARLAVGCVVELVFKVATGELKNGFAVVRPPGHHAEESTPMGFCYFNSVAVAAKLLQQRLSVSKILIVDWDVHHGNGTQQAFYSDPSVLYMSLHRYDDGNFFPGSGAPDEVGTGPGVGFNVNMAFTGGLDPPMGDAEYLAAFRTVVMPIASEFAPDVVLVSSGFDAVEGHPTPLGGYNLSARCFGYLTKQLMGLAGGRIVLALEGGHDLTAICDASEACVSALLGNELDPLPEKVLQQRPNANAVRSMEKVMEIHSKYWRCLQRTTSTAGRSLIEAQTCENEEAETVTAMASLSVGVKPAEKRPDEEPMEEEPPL
# MV4-11 [2] = experiment: Induction of apoptosis in human MV4-11 cells assessed as necrotic cells at 0.1 uM measured after 48 hrs by Annexin V/7-AAD-dual staining based flow cytometric analysis (reference value: 0.3 %); type: functional
# Homo sapiens = species on record: Homo sapiens; settings: time 90.0 sec
# MV4-11 [3] = experiment: Induction of apoptosis in human MV4-11 cells assessed as early apoptotic cells at 0.1 uM measured after 48 hrs by Annexin V/7-AAD-dual staining based flow cytometric analysis (reference value: 2.2 %); type: functional
# MV4-11 [4] = experiment: Induction of apoptosis in human MV4-11 cells assessed as viable cells at 0.4 uM measured after 48 hrs by Annexin V/7-AAD-dual staining based flow cytometric analysis (reference value: 96.4 %); type: functional; settings: read-out: Activity
# MV4-11 [5] = experiment: Induction of apoptosis in human MV4-11 cells assessed as late apoptotic cells at 0.4 uM measured after 48 hrs by Annexin V/7-AAD-dual staining based flow cytometric analysis (reference value: 1.1 %); type: functional
# MV4-11 [6] = experiment: Antitumor activity against human MV4-11 cells xenografted in BALB/c nude mouse assessed as tumor growth inhibition at 50 mg/kg, ip administered for 20 days in presence of by vernier caliper analysis; type: functional; settings: MV4-11, 480 h, time 20 day, read-out: TGI
# MV4-11 [7] = experiment: Induction of apoptosis in human MV4-11 cells assessed as late apoptotic cells at 0.2 uM measured after 48 hrs by Annexin V/7-AAD-dual staining based flow cytometric analysis (reference value: 1.1 %); type: functional
compound,measurement,setting,value
Cc1cc(C)c(CNC(=O)c2cc(-c3ccc(N4CCN(c5ncc(C(=O)NO)cn5)CC4)nc3)cc3c2cnn3C(C)C)c(=O)[nH]1,IC50,Histone deacetylase 7,8.19 µM
same,Activity,MV4-11 [1],23.3%
same,IC50,Histone deacetylase 4,5.64 µM
same,Activity,MV4-11 [2],1.9%
same,Ka,Homo sapiens,2.18 10^5/M/s
same,Activity,MV4-11 [3],5.4%
same,viability at 0.4 µM,MV4-11 [4],53.8%
same,Activity,MV4-11 [5],17.1%
same,inhibition in vivo at 50 mg/kg,MV4-11 [6],65.7%
same,Activity,MV4-11 [7],11.1%
